This note sets out measurements from PubChem BioAssay AID1918932 (Molecular Pharmacology Branch, DTP, NCI, 2023).

This assay has as its system 171881-019-R-J1-PDC complex spheroid viability. Put plainly: Anticancer human tumor 171881-019-R-J1-PDC patient-derived invasive breast carcinoma cell line growth inhibition. Conditions: for viability, T/C: stronger effect = lower value. Put shortly:
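Multicellular complex spheroids of tumor cells with human endothelial cells (HUVEC) and mesenchymal stem cells; the LSD1 inhibitor iadademstat was combined with standard-of-care or investigational agents. Top concentration at or near clinical Cmax, half-log dilutions; final DMSO ≤0.25%.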

Where [1] appears, read: curve of first compound, second compound 0.1 µM.
[2] abbreviates: curve of first compound, second compound 0.316 µM.
Setting [3] is: curve of first compound, second compound 1 µM.
The mark [4] stands for this setting: curve of first compound, second compound 3.16 µM.
The mark [5] stands for this setting: curve of first compound, second compound 10 µM.
Setting [6] is: second compound 0.1 µM, first compound 0.00316 µM.
Setting [7] is: second compound 0.1 µM, first compound 0.01 µM.
The mark [8] stands for this setting: second compound 0.1 µM, first compound 0.0316 µM.
Where [9] appears, read: second compound 0.1 µM, first compound 0.1 µM.
Where [10] appears, read: second compound 0.1 µM, first compound 0.316 µM.
[11] abbreviates: second compound 0.1 µM, first compound 1 µM.
[12] abbreviates: second compound 0.316 µM, first compound 0.00316 µM.
[13] abbreviates: second compound 0.316 µM, first compound 0.01 µM.
Where [14] appears, read: second compound 0.316 µM, first compound 0.0316 µM.
Where [15] appears, read: second compound 0.316 µM, first compound 0.1 µM.
[16] abbreviates: second compound 0.316 µM, first compound 0.316 µM.
Setting [17] is: second compound 0.316 µM, first compound 1 µM.
[18] abbreviates: second compound 1 µM, first compound 0.00316 µM.
Setting [19] is: second compound 1 µM, first compound 0.01 µM.
[20] abbreviates: second compound 1 µM, first compound 0.0316 µM.
Where [21] appears, read: second compound 1 µM, first compound 0.1 µM.
[22] abbreviates: second compound 1 µM, first compound 0.316 µM.
Where [23] appears, read: second compound 1 µM, first compound 1 µM.
[24] abbreviates: second compound 3.16 µM, first compound 0.00316 µM.
Where [25] appears, read: second compound 3.16 µM, first compound 0.01 µM.
[26] abbreviates: second compound 3.16 µM, first compound 0.0316 µM.
[27] abbreviates: second compound 3.16 µM, first compound 0.1 µM.
Setting [28] is: second compound 3.16 µM, first compound 0.316 µM.
[29] abbreviates: second compound 3.16 µM, first compound 1 µM.
[30] abbreviates: second compound 10 µM, first compound 0.00316 µM.
Setting [31] is: second compound 10 µM, first compound 0.01 µM.
The mark [32] stands for this setting: second compound 10 µM, first compound 0.0316 µM.
The mark [33] stands for this setting: second compound 10 µM, first compound 0.1 µM.
The mark [34] stands for this setting: second compound 10 µM, first compound 0.316 µM.
[35] abbreviates: second compound 10 µM, first compound 1 µM.

The structures appear in SMILES notation. pIC50: −log10 of the molar value. Several values for one entry are separate records, joined by “and”; a condition that tells them apart may be missing. Equal entries are not always repeated.
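Note: spheroids exposed to agents for 7 days after 3 days growth.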

Turning to `CC1COCCN1c1cc(-c2ccnn2C)c2ccnc(-c3ccn[nH]3)c2n1` (stereo unspecified) + NC1CCC(NC2CC2c2ccccc2)CC1, the pIC50 (usually the negative decadic logarithm of the IC50, by convention in mol/L) runs as follows: under setting [1], 7.99; under setting [2], 8.02; under setting [3], 7.98; under setting [4], 7.87; under setting [5], 7.86. Besides, the viability, T/C (in general, the ratio of treated to control) is 57% under setting [6]; 50.7% under setting [7]; 18.8% under setting [8]; 8.26% under setting [9]; 6.58% under setting [10]; 5.76% under setting [11]. In addition, the viability, T/C was 63.3% under setting [12]; 49.5% under setting [13]; 19% under setting [14]; 8.72% under setting [15]; 6.3% under setting [16]; 6.44% under setting [17]. Besides, the viability, T/C was 65.3% under setting [18]; 51.2% under setting [19]; 24.1% under setting [20]; 10.6% under setting [21]; 6.7% under setting [22]; 7.53% under setting [23]. Also, the viability, T/C is, setting by setting: under setting [24], 70.8%; under setting [25], 58.9%; under setting [26], 25.7%; under setting [27], 9.54%; under setting [28], 7.15%; under setting [29], 6.61%. Besides, the viability, T/C was 70% under setting [30]; 58.3% under setting [31]; 27.1% under setting [32]; 10.1% under setting [33]; 7.47% under setting [34]; 10.2% under setting [35].
For the compound `CCN(c1cc(-c2ccc(CN3CCOCC3)cc2)cc(C(=O)NCc2c(C)cc(C)[nH]c2=O)c1C)C1CCOCC1`, the viability, T/C was 81.1% and 94.4% (compound 0.00949 µM); 86.6% and 102% (compound 0.03 µM); 92.5% and 86.2% (compound 0.0949 µM); 102% and 82.3% (compound 0.3 µM); 89.9% and 64.9% (compound 0.949 µM); 46.9% and 40.9% (compound 3 µM). Further, the pIC50 (curve of compound) is 5.56 and 5.71.
In the case of `O=C(C=Cc1cccc(S(=O)(=O)Nc2ccccc2)c1)NO` + NC1CCC(NC2CC2c2ccccc2)CC1, the pIC50 was 6.36 under setting [1]; 6.41 under setting [2]; 6.43 under setting [3]; 6.43 under setting [4]; 6.44 under setting [5]. Moreover, the viability, T/C is 81.7% (second compound 0.1 µM, first compound 0.00949 µM); 86.9% (second compound 0.1 µM, first compound 0.03 µM); 112% (second compound 0.1 µM, first compound 0.0949 µM); 69.3% (second compound 0.1 µM, first compound 0.3 µM); 10.8% (second compound 0.1 µM, first compound 0.949 µM); 0.16% (second compound 0.1 µM, first compound 3 µM). Further, the viability, T/C was 92.8% (second compound 0.316 µM, first compound 0.00949 µM); 104% (second compound 0.316 µM, first compound 0.03 µM); 112% (second compound 0.316 µM, first compound 0.0949 µM); 63.5% (second compound 0.316 µM, first compound 0.3 µM); 5.13% (second compound 0.316 µM, first compound 0.949 µM); 0.17% (second compound 0.316 µM, first compound 3 µM). Besides, the viability, T/C reads like this: (second compound 1 µM, first compound 0.00949 µM) 101%; (second compound 1 µM, first compound 0.03 µM) 108%; (second compound 1 µM, first compound 0.0949 µM) 100%; (second compound 1 µM, first compound 0.3 µM) 59%; (second compound 1 µM, first compound 0.949 µM) 10.2%; (second compound 1 µM, first compound 3 µM) 5.62%. The viability, T/C by setting is: (second compound 3.16 µM, first compound 0.00949 µM) 93.4%; (second compound 3.16 µM, first compound 0.03 µM) 105%; (second compound 3.16 µM, first compound 0.0949 µM) 97%; (second compound 3.16 µM, first compound 0.3 µM) 58.9%; (second compound 3.16 µM, first compound 0.949 µM) 9.02%; (second compound 3.16 µM, first compound 3 µM) 0.15%. The viability, T/C by setting is: (second compound 10 µM, first compound 0.00949 µM) 84.1%; (second compound 10 µM, first compound 0.03 µM) 93%; (second compound 10 µM, first compound 0.0949 µM) 111%; (second compound 10 µM, first compound 0.3 µM) 59.1%; (second compound 10 µM, first compound 0.949 µM) 7.76%; (second compound 10 µM, first compound 3 µM) 0.33%.
For `Nc1ncn(C2CC(O)C(CO)S2)c(=O)n1` (stereo unspecified), the viability, T/C is, setting by setting: (compound 0.000949 µM) 95.1% and 102%; (compound 0.003 µM) 98% and 105%; (compound 0.00949 µM) 136% and 94.5%; (compound 0.03 µM) 124% and 76.7%; (compound 0.0949 µM) 73% and 53.8%; (compound 0.3 µM) 38% and 34.8%. Moreover, the pIC50 (curve of compound) was 6.69 and 6.94.
Turning to `COc1ccc([C@@H](O)c2cc(-c3ncnc4cc(N5CCOCC5)ccc34)c(F)cc2Cl)nn1`, the viability, T/C is 101% and 98.9% (compound 0.0316 µM); 128% and 95.7% (compound 0.1 µM); 98.3% and 76% (compound 0.316 µM); 38.5% and 29.6% (compound 1 µM); 7.38% and 8.2% (compound 3.16 µM); 6.64% and 11.3% (compound 10 µM). The negative logarithm of the IC50 (pIC50) (curve of compound) was 6.10 and 6.22.
As for `COc1cc(Nc2ncc3c(n2)-c2ccc(Cl)cc2C(c2c(F)cccc2OC)=NC3)ccc1C(=O)O` + NC1CCC(NC2CC2c2ccccc2)CC1, the pIC50 was under 6.00 under setting [1]; under 6.00 under setting [2]; under 6.00 under setting [3]; under 6.00 under setting [4]; under 6.00 under setting [5]. Moreover, the viability, T/C was 105% under setting [6]; 99.2% under setting [7]; 100% under setting [8]; 99.6% under setting [9]; 93.7% under setting [10]; 60.1% under setting [11]. Further, the viability, T/C under setting [12] is 111%; the viability, T/C under setting [13] is 92.9%; the viability, T/C under setting [14] was 98.6%; the viability, T/C under setting [15] was 95.9%; the viability, T/C under setting [16] is 92.4%; the viability, T/C under setting [17] was 59.2%. Also, the viability, T/C runs as follows: under setting [18], 112%; under setting [19], 107%; under setting [20], 93.5%; under setting [21], 105%; under setting [22], 88.5%; under setting [23], 62.2%. Further, the viability, T/C is 110% under setting [24]; 104% under setting [25]; 95.7% under setting [26]; 88.3% under setting [27]; 92% under setting [28]; 60.9% under setting [29]. The viability, T/C under setting [30] was 113%; the viability, T/C under setting [31] was 111%; the viability, T/C under setting [32] was 97.6%; the viability, T/C under setting [33] is 104%; the viability, T/C under setting [34] is 86.7%; the viability, T/C under setting [35] is 60.7%.
